According to patent publication US6054462A, “Intranasal antimigraine compositions” (Janssen Pharmaceutica, N.V., priority 1994, dated 2000):

Columns and labels:
[1] = tested on: 5-HT1 -like receptors; settings: in vitro and in vivo animal experiments; cited from earlier work
[2] = clinical; design: species or system healthy volunteers; settings: human, in vivo
Procedure: A double-blind, randomized, cross-over trial in healthy volunteers during four treatment days were set up. All volunteers (n=8) participated in the four sessions of the trial, in which the above formulation was tested. On each treatment day volunteers received a single intranasal administration of 1 mg of a formulation of (-)-(R)-N-[(3,4-dihydro-2H-1-benzopyran-2-yl)methyl]-N'-(1,4,5,6-tetrahydro-2-pyrimidinyl)-1,3-propanediamine dihydrochloride as described in example 1. Unidose nasal sprayers at a concentration of 10 mg/ml, which provided a volume of 100 μl per spray were used. The composition was administered to the volunteers as a single spray in one nostril. Blood was sampled over 24 hours for pharmacokinetic analysis. Venous 10 ml blood samples for drug analysis were taken at 0, 5, 10, 20, 30, 60, 90, 120, 240 and 360 minutes and 24 hours after drug administration. The blood samples were transferred to heparinized tubes and centrifuged within 30 minutes after collection. Separated plasma was transferred to polystyrene tubes adequately labelled with the trial number, subject number and initials, time and date of sampling.
Concentrations of (-)-(R)-N-[(3,4-dihydro-2H-1-benzopyran -2-yl)methyl]-N'-(1,4,5,6-tetrahydro-2-pyrimidinyl)-1,3-propanediamine dihydrochloride were determined by radio immunoassay. […]

SMILES | arterial vasoconstrictor response arises through activation of 5-HT1 -like receptors [1] | vasoconstrictory properties [1] | bioavailability at 24 h [2] [%]
c1ccc2c(c1)CCC(CNCCCNC1=NCCCN1)O2 (stereo not drawn) [N-[(3,4-dihydro-2H-1-benzopyran-2-yl)methyl]-N'-(1,4,5,6-tetrahydro-2-pyrimidinyl)-1,3-propanediamine] | agonistic activation of 5-HT1 -like receptors | highly vasoconstrictory properties | 
Cl.Cl.c1ccc2c(c1)CC[C@H](CNCCCNC1=NCCCN1)O2 [active ingredient, (-)-(R)-N-[(3,4-dihydro-2H-1-benzopyran-2-yl)methyl]-N'-(1,4,5,6-tetrahydro-2-pyrimidinyl)-1,3-propanediamine dihydrochloride] |  |  | ~35
